# Assay results taken from US20160346291A1, “COMPOSITIONS AND THERAPEUTIC METHODS FOR ACCELERATED PLAQUE REGRESSION” (Resverlogix Corp, priority 2013, published 2016).
# Tested on: ApoA-I mRNA
# Assay: ApoA-I mRNA quantitation in HepG2 cells (real-time PCR)
# Assay type: cell-based
# Set-up: key: Active: An active compound is one that causes a >15% increase in ApoA-I mRNA at a concentration less than or equal to 100 uM
# Conditions: concentration less than or equal to 100 uM, fold induction relative to DMSO control
# Protocol: At time of harvesting, the spent media was removed from the HepG2 cells and immediately placed on ice (for immediate use) or at −80° C. (for future use) in ApoA-I and albumin ELISAs. The cells remaining in the plate wells were rinsed in 200 μL PBS. PBS was carefully removed to avoid removing any loosely attached cells.
# Once the PBS was removed, 85 μL cell lysis solution was added to the cells in each well and incubated for 5-10 min at room temperature, to allow for complete cell lysis and detachment. mRNA was then prepared using the “mRNA Catcher PLUS plate” from Invitrogen, according to the protocol supplied. After the last wash, as much wash buffer as possible was aspirated without allowing the wells to dry. Elution Buffer (E3, 80 μL) was then added to each well. mRNA was then eluted by incubating the mRNA Catcher PLUS plate with Elution Buffer for 5 min at 68° C. and then immediately placing the plate on ice.
# The eluted mRNA was isolated and then used in a one-step real-time […]-PCR reaction, using components of the Ultra Sense Kit together with Applied Biosystems primer-probe mixes. Real-time PCR data was analyzed, using the Ct values, to determine the fold induction of each unknown sample, relative to the control (that is, relative to the control for each independent DMSO concentration).
# The following compounds of Formula I were evaluated in this assay. An active compound is one that causes a >15% increase in ApoA-I mRNA at a concentration less than or equal to 100 uM.
row,SMILES,Effect on ApoA-I mRNA levels
1,"COc1cc2nc(-c3cc(C)c(OCCO)c(C)c3)[nH]c(=O)c2cc1OC [2-(4-(2-hydroxyethoxy)-3,5-dimethylphenyl)-6,7-dimethoxyquinazolin-4(3H)-one]",Active
2,"COc1cc(OC)c2c(=O)[nH]c(-c3cc(C)c(O)c(C)c3)nc2c1 [2-(4-hydroxy-3,5-dimethylphenyl)-5,7-dimethoxyquinazolin-4(3H)-one]",Active
3,"CCN1CCN(Cc2ccc(-c3nc4cc(OC)cc(OC)c4c(=O)[nH]3)cc2)CC1 [2-(4-((4-ethylpiperazin-1-yl)methyl)phenyl)-5,7-dimethoxyquinazolin-4(3H)-one]",Active
4,"COc1cc(OC)c2c(=O)[nH]c(-c3ccc(OCC(=O)O)c(OC)c3)nc2c1 [2-(4-(5,7-dimethoxy-4-oxo-3,4-dihydroquinazolin-2-yl)-2-methoxyphenoxy)acetic acid]",Active
5,"COc1cc(OC)c2c(=O)[nH]c(-c3ccncc3)nc2c1 [5,7-dimethoxy-2-(pyridin-4-yl)quinazolin-4(3H)-one]",Active
6,"Cc1cc(-c2cc3nc(OC(C)C)cc(OC(C)C)c3c(=O)[nH]2)cc(C)c1O [7-(4-hydroxy-3,5-dimethylphenyl)-2,4-diisopropoxy-1,6-naphthyridin-5(6H)-one]",Active
7,"COc1cc(OC)c2c(=O)[nH]c(-c3cccc(-c4ccc(SC)cc4)n3)nc2c1 [5,7-dimethoxy-2-(6-(4-(methylthio)phenyl)pyridin-2-yl)quinazolin-4(3H)-one]",Active
8,"N=C(N)NCCCC(N)C(=O)Oc1ccc(-c2cc3ccccc3c(=O)[nH]2)cc1 (centres unmarked) [4-(1-Oxo-1,2-dihydroisoquinolin-3-yl)phenyl 2-amino-5-guanidinopentanoate]",Active
9,"COc1cc(OC)c2c(=O)[nH]c(-c3ccc(N4CCN(C)CC4)cc3)nc2c1 [5,7-dimethoxy-2-(4-(4-methylpiperazin-1-yl)phenyl)quinazolin-4(3H)-one]",Active
10,COc1cccc2c(=O)[nH]c(-c3ccc(O)c(F)c3)cc12 [3-(3-fluoro-4-hydroxyphenyl)-5-methoxyisoquinolin-1(2H)-one],Inactive
11,"COCCOc1c(C)cc(-c2nc3cc(OC)cc(OC)c3c(=O)[nH]2)cc1C [5,7-dimethoxy-2-(4-(2-methoxyethoxy)-3,5-dimethylphenyl)quinazolin-4(3H)-one]",Active
12,"COc1cc(OC)c2c(=O)[nH]c(-c3ccc(O)c(C)c3)nc2c1 [2-(4-hydroxy-3-methylphenyl)-5,7-dimethoxyquinazolin-4(3H)-one]",Active
13,"COc1cc(OC)c2c(=O)[nH]c(-c3cc(C)c(OCCNC(=O)Nc4ccccc4)c(C)c3)nc2c1 [1-(2-(4-(5,7-dimethoxy-4-oxo-3,4-dihydroquinazolin-2-yl)-2,6-dimethylphenoxy)ethyl)-3-phenylurea]",Active
14,"COc1cc(OC)c2c(=O)[nH]c(-c3cc(C)c(OCC(=O)O)c(C)c3)nc2c1 [2-(4-(5,7-dimethoxy-4-oxo-3,4-dihydroquinazolin-2-yl)-2,6-dimethylphenoxy)acetic acid]",Active
15,"COc1cc(OC)c2c(=O)[nH]c(-c3cccc([N+](=O)[O-])c3)nc2c1 [5,7-dimethoxy-2-(3-nitrophenyl)quinazolin-4(3H)-one]",Inactive
16,"COc1cc(OC)c2c(=O)n(C)c(-c3cc(C)c(O)c(C)c3)cc2c1 [3-(4-hydroxy-3,5-dimethylphenyl)-6,8-dimethoxy-2-methylisoquinolin-1(2H)-one]",Active
17,"Cc1cc(-c2nc3ccc(Br)cc3c(=O)[nH]2)cc(C)c1OCCO [6-bromo-2-(4-(2-hydroxyethoxy)-3,5-dimethylphenyl)quinazolin-4(3H)-one]",Active
18,"COc1cc(OC)c2c(=O)[nH]c(-c3cc(C)c(O)c(C)c3)cc2c1 [3-(4-hydroxy-3,5-dimethylphenyl)-6,8-dimethoxyisoquinolin-1(2H)-one]",Active
19,"O=C(O)COc1ccc(-c2nc3ccccc3c(=O)[nH]2)cc1 [2-(4-(4-oxo-3,4-dihydroquinazolin-2-yl)phenoxy)acetic acid]",Active
20,"Cc1cc(-c2cc3ncccc3c(=O)[nH]2)cc(C)c1O [7-(4-hydroxy-3,5-dimethylphenyl)-1,6-naphthyridin-5(6H)-one]",Active
21,"COc1cc(OC)c2c(=O)[nH]c(-c3cc(C)c(OCC(C)(C)O)c(C)c3)cc2c1 [3-(4-(2-hydroxy-2-methylpropoxy)-3,5-dimethylphenyl)-6,8-dimethoxyisoquinolin-1(2H)-one]",Active

row,SMILES,Effect on ApoA-I mRNA levels
1,"COc1cc(OC)c2c(=O)[nH]c(-c3cccc(C)n3)nc2c1 [5,7-dimethoxy-2-(6-methylpyridin-2-yl)quinazolin-4(3H)-one]",Active
2,Oc1ccc(-c2cc3ccccc3cn2)cc1 [4-Isoquinolin-3-yl-phenol],Active
3,"COc1cc(OC)c2cnc(-c3cc(C)c(O)c(C)c3)cc2c1 [4-(6,8-dimethoxyisoquinolin-3-yl)-2,6-dimethylphenol]",Active
4,"NC(=O)COc1ccc(-c2nc3ccccc3c(=O)[nH]2)cc1 [2-(4-(4-oxo-3,4-dihydroquinazolin-2-yl)phenoxy)acetamide]",Active
5,"Cc1cc(-c2nc3ccc(CN4CCOCC4)cc3c(=O)[nH]2)cc(C)c1O [2-(4-hydroxy-3,5-dimethylphenyl)-6-(morpholinomethyl)quinazolin-4(3H)-one]",Active
6,"COc1cc(O)nc2cc(-c3cc(C)c(O)c(C)c3)[nH]c(=O)c12 [2-hydroxy-7-(4-hydroxy-3,5-dimethylphenyl)-4-methoxy-1,6-naphthyridin-5(6H)-one]",Active
7,"COc1cc(OC)c2c(=O)[nH]c(-c3ccc(N(CCO)CCO)cc3)nc2n1 [2-(4-(bis(2-hydroxyethyl)amino)phenyl)-5,7-dimethoxypyrido[2,3-d]pyrimidin-4(3H)-one]",Active
8,"COc1cc(OC)c2c(=O)nc(-c3cc(C)c(O)c(C)c3)n(C)c2c1 [2-(4-hydroxy-3,5-dimethylphenyl)-5,7-dimethoxy-1-methylquinazolin-4(1H)-one]",Active
9,O=c1[nH]c(-c2ccc(N(CCO)CCO)cc2)nc2ccccc12 [2-(4-(bis(2-hydroxyethyl)amino)phenyl)quinazolin-4(3H)-one],Active
10,"COc1ccc(-c2nc3cc(OC)cc(OC)c3c(=O)[nH]2)cc1 [5,7-dimethoxy-2-(4-methoxyphenyl)quinazolin-4(3H)-one]",Active
11,"COc1cc(OC)cc(-c2nc3cc(OC)cc(OC)c3c(=O)[nH]2)c1 [2-(3,5-dimethoxyphenyl)-5,7-dimethoxyquinazolin-4(3H)-one]",Active
12,"Cc1cc(-c2nc3ccc(Br)cc3c(=O)[nH]2)cc(C)c1O [6-bromo-2-(4-hydroxy-3,5-dimethylphenyl)quinazolin-4(3H)-one]",Active
13,"COc1cc(OC)c2c(=O)[nH]c(-c3cc(C)c(OCCNC(=O)C(C)C)c(C)c3)nc2c1 [N-(2-(4-(5,7-dimethoxy-4-oxo-3,4-dihydroquinazolin-2-yl)-2,6-dimethylphenoxy)ethyl)isobutyramide]",Active
14,"COc1cc(OC)c2c(=O)[nH]c(-c3ccc(O)cc3)cc2c1 [3-(4-hydroxyphenyl)-6,8-dimethoxyisoquinolin-1(2H)-one]",Active
15,"COc1cc(OC)c2c(=O)[nH]c(-c3cc(C)c(N)c(C)c3)nc2c1 [2-(4-amino-3,5-dimethylphenyl)-5,7-dimethoxyquinazolin-4(3H)-one]",Active
16,"COc1cc(OC)c2c(=O)[nH]c(-c3cc(C)c(OCCN(C)C)c(C)c3)cc2c1 [3-(4-(2-(dimethylamino)ethoxy)-3,5-dimethylphenyl)-6,8-dimethoxyisoquinolin-1(2H)-one]",Active
17,"COc1cc(OC)c2c(=O)[nH]c(-c3cccc(-c4ccc(S(C)(=O)=O)cc4)n3)nc2c1 [5,7-dimethoxy-2-(6-(4-(methylsulfonyl)phenyl)pyridin-2-yl)quinazolin-4(3H)-one]",Active
18,"COc1cc(OC)c2c(=O)[nH]c(-c3ccc(NC(=O)CO)cc3)nc2c1 [N-(4-(5,7-dimethoxy-4-oxo-3,4-dihydroquinazolin-2-yl)phenyl)-2-hydroxyacetamide]",Active
19,"COc1cc(OC)c2c(=O)[nH]c(-c3cc(C)c(OCCNC(=O)N(C)C)c(C)c3)nc2c1 [3-(2-(4-(5,7-dimethoxy-4-oxo-3,4-dihydroquinazolin-2-yl)-2,6-dimethylphenoxy)ethyl)-1,1-dimethylurea]",Active
20,"COc1cc2cc(-c3cc(C)c(O)c(C)c3)n(C)c(=O)c2c(OC)c1CN1CCOCC1 [3-(4-hydroxy-3,5-dimethylphenyl)-6,8-dimethoxy-2-methyl-7-(morpholinomethyl) isoquinolin-1(2H)-one]",Active
